# Laboratory results: patent publication US10765644B2, “Methods for the treatment of hepatitis C” (priority 2015, dated 2020)
# Tests used:
# [1] = tested on: HCV GT1B replicon; assay: HCV replicon assay (antiviral, luciferase / qRT-PCR endpoint); type: cell-based, hepatitis C virus
# Description: Stable HCV replicons of different genotypes may be used for anti-HCV evaluation.
# The HCV replicon antiviral evaluation assay examined the effects of compounds at six serial dilutions. Human interferon alpha-2b (rIFNα-2b) and/or Sofosbuvir were included in each run as a positive control compound.
# (§1) Briefly, the replicon cells were plated at 5,000 cells/well into 96-well plates that were dedicated for the analysis of cell numbers (cytotoxicity) or antiviral activity. On the following day, samples were diluted with assay media and added to the appropriate wells. Cells were processed 72 hours later when the cells were still sub-confluent. For the luciferase endpoint assay, HCV replicon levels were assessed as replicon-derived Luc activity. The concentration of drug that reduced cell viability was assessed by the fluorometric CytoTox-1 cell proliferation assay (Promega), (expressed as cell numbers). For the qRT-PCR/TaqMan assay, total RNA was extracted from the replicon cells using RNeasy 96 kit (Qiagen) according to the manufacturer's protocol. Real-time RTPCR/TaqMan assays were performed to measure copy numbers of the replicon RNA and cellular ribosomal RNA. Where applicable EC50 (concentration inhibiting HCV replicon by 50%), EC90 (concentration inhibiting HCV replicon by 90%), CC50 (concentration decreasing cell viability by 50%), CC90 (concentration decreasing cell viability by 90%) and SI (selectivity indices: CC50/EC50 and CC90/EC90) values were derived.
# [2] = HCV replicon assay, cytotoxicity (CytoTox-1 cell proliferation assay); type: cell-based; settings: HCV replicon cells, In vitro HCV replicon assay, post infection, read-out: CC50 (concentration decreasing cell viability by 50%)
# Description: as §1
# [3] = tested on: cell culture-derived HCV (HCVcc); assay: microbe, parasite or virus in culture; type: cell-based, hepatitis C virus
# Description: (§2) Huh7.5 cells were grown in Dulbecco's modified essential media (DMEM), 10% fetal bovine serum (FBS), 1% penicillin-streptomycin (pen-strep), 1% Non-essential amino acids (NEAA) in a 5% CO2 incubator at 37° C. Huh7.5 cells were seeded at 1×10^4 cells per well into 96-well plates according to Southern Research Institute standard format. Test articles were serially diluted with DMEM plus 5% FBS. The diluted compound in the amount of 50 μl was mixed with equal volume of cell culture-derived HCV (HCVcc), then applied to appropriate wells in the plate. Human interferon alpha-2b (rIFNα-2b) and/or Sofosbuvir were included as a positive control. After 72 hr incubation at 37° C., the cells were lysed for measurement of luciferase activity using Renilla Luciferase Assay System (Promega) according to manufacturer's instruction. The number of cells in each well were determined by CytoTox-1 reagent (Promega). Test articles were tested at 6 serial dilutions in triplicate to derive, if applicable, EC50 and EC90 (concentration inhibiting HCVcc infectivity by 50% and 90%, respectively), CC50 (concentration decreasing cell viability by 50%) and SI (selectivity index: CC50/EC50) values (Table 1).
# [4] = in vitro; type: cell-based; settings: human
# Description: as §2
structure (smiles),measurement,setting,value
"CC[C@H](c1ccc(O)cc1)[C@@H](CC)c1ccc(O)cc1 [Hexestrol, meso 3,4-bis(4-hydroxyphenyl)hexane]",anti-Hepatitis C activity (in words),[1]; HCV replicon assay,significant anti-Hepatitis C activity
same,EC50,"[1]; Hepatitis C virus, GT1B, 72 h, read-out: EC50 (concentration inhibiting HCV replicon by 50%)",10.9 µM
same,Selectivity index (CC50/EC50),[1]; In vitro HCV replicon assay,2.51
same,CC50 at 72 h,[2],27.4 µM
same,anti-Hepatitis C activity (in words),[3]; Hepatitis C viral infectivity assay,significant anti-Hepatitis C activity
same,EC50,"[3]; Hepatitis C virus, Huh7.5, 72 h, read-out: EC50 (concentration inhibiting HCVcc infectivity by 50%)",2.85 µM
same,Selectivity index (CC50/EC50),[3]; In vitro HCVcc assay,14.2
same,CC50 at 72 h,[4],50.4 µM
